What was measured:
[1] = human, in vivo, 4 weeks
Text: In order to identify genetic contributions to treatment response, the inventors carried out a genome-wide association study on genomic samples obtained from the IDEAL study, the design of which was reported in McHutchison et al., J. Viral Hepatol., Vol. 15, No. 7, July 2008, pp. 475-481). Briefly, in the IDEAL study, treatment-naive patients chronically infected with HCV genotype 1 were randomized (1:1:1) to receive one of the following 48-week treatment regimens: peginterferon alfa-2b (PEG2b) at 1.5 mcg/kg/week plus ribavirin (RBV); PEG2b at 1.0 mcg/kg/week plus RBV; or peginterferon alfa-2a (PEG2a) at 180 meg/week+RBV. In the PEG2b regimens, patients weighing 40-65 kg received 800 mg/day RBV; patients weighing more than 65 and up to 85 kg received 1000 mg/day RBV; patients weighing more than 85 and up to 105 kg received 1200 mg/day RBV; and patients weighing more than 105 kg received 1400 mg/day RBV). In the PEG2a regimen patients weighing <75 kg received 1000 mg/day of RBV while patients weighing ≧75 kg received 1200 mg/day of RBV. Hemoglobin values were measured at baseline (before the first dose of treatment), at week 2, 4, 8, 12, and then every 6 weeks up to treatment completion (48 weeks total). Follow-up measures were obtained at 4, 12 and 24 weeks post-treatment. […]

[2] = taribavirin with PegIntron (peginterferon alfa-2b), clinical trials; cited from earlier work
erythrocytes = erythrocytes versus plasma; cited from earlier work

NC(=O)c1ncn([C@@H]2O[C@H](CO)[C@@H](O)[C@H]2O)n1 [RBV, 1-[(2R,3R,4S,5R)-3,4-dihydroxy-5-(hydroxymethyl)oxolan-2-yl]-1H-1,2,4-triazole-3-carboxamide]
patients with Hb concentrations <10 g/dL (severe anemia) [1]: 13%

N=C(N)c1ncn([C@@H]2O[C@H](CO)[C@@H](O)[C@H]2O)n1 [taribavirin, 1-(β-D-Ribofuranosyl)-1,2,4-triazole-3-carboximide]
anemia compared with patients treated with ribavirin and PegIntron [2]: less anemia

NC(=O)c1ncn([C@@H]2O[C@H](COP(=O)(O)OP(=O)(O)OP(=O)(O)O)[C@@H](O)[C@H]2O)n1 [RTP]
RTP concentration in erythrocytes relative to plasma (erythrocytes): 60 fold

From patent publication US20120282224A1, “MARKERS ASSOCIATED WITH RIBAVIRIN-INDUCED ANEMIA” (priority 2009, published 2012)
